This test concerns cancer cells. Briefly: MTS cell growth inhibition assay (72 hours). Type of test: cell-based. A digest of the protocol:
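Growth inhibition read as formazan absorbance at 492 nm after 4 h MTS/PMS, following 72 h compound exposure at 37 °C in 1% FBS DMEM (cells pre-seeded 18 h). IC50 = 50% absorbance reduction; inhibition graded in bands.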

[1] abbreviates: Homo sapiens, DLD-1, 72 h, DLD-1 cells, read-out: DLD-1 MTS 72 hr at 10 μM.
[2] abbreviates: Homo sapiens, KATO III, 72 h, KATO III cells, read-out: KATO III MTS 72 hr at 10 μM.
Setting [3] is: Homo sapiens, MDA-MB-231, 72 h, MDA-MB-231 cells, read-out: MDA-MB-231 MTS 72 hr at 10 μM.
The mark [4] stands for this setting: Homo sapiens, NCI-H1299, 72 h, NCI-H1299 cells, read-out: NCI-H1299 MTS 72 hr at 10 μM.
[5] abbreviates: PaCa-2, 72 h, PACA-2 cells, read-out: PACA-2 MTS 72 hr at 10 μM.

This passage reports inhibition results from patent publication US8273754B2, “Substituted 1H-pyrazolo[3,4-D]pyrimidine-6-amine compounds” (ArQule, Inc., priority 2008, dated 2012).

Like-named read-outs stand apart in the source and are kept apart here.

As to `CCc1ccc(S(=O)(=O)N2CCC(Nc3nc(N)nc4[nH]ncc34)Cc3ccccc32)cc1` (stereo not drawn) [Compound 172, N4-{1-[(4-ethylphenyl)sulfonyl]-2,3,4,5-tetrahydro-1H-1-benzazepin-4-yl}-1H-pyrazolo[3,4-d]pyrimidine-4,6-diamine], the inhibition at 10 µM is less than 50% under setting [1]; less than 50% under setting [2]; less than 50% under setting [3]; less than 50% under setting [4]; less than 50% under setting [5].
For the compound `Cc1cccc(S(=O)(=O)N2CCC(Nc3nc(N)nc4[nH]ncc34)Cc3ccccc32)c1` (stereo not drawn) [Compound 168, N4-{1-[(3-methylphenyl)sulfonyl]-2,3,4,5-tetrahydro-1H-1-benzazepin-4-yl}-1H-pyrazolo[3,4-d]pyrimidine-4,6-diamine], the inhibition at 10 µM was less than 50% under setting [1]; less than 50% under setting [2]; less than 50% under setting [3]; less than 50% under setting [4]; less than 50% under setting [5].
`COc1cccc(CC(=O)N2CC(Nc3nc(N)nc4[nH]ncc34)Cc3ccccc32)c1` (stereo not drawn) [Compound 101, 1-(3-(6-amino-1H-pyrazolo[3,4-d]pyrimidin-4-ylamino)-3,4-dihydroquinolin-1(2H)-yl)-2-(3-methoxyphenyl)ethanone]: the inhibition at 10 µM by setting is: under setting [1], greater than 79%; under setting [2], less than 50%; under setting [3], 50 to 79%; under setting [4], less than 50%; under setting [5], less than 50%.
For the compound `Nc1nc(NC2Cc3ccccc3N(C(=O)COc3cccc(Cl)c3)C2)c2cn[nH]c2n1` (stereo not drawn) [Compound 93, 1-(3-(6-amino-1H-pyrazolo[3,4-d]pyrimidin-4-ylamino)-3,4-dihydroquinolin-1(2H)-yl)-2-(3-chlorophenoxy)ethanone], the inhibition at 10 µM is, setting by setting: under setting [1], less than 50%; under setting [2], less than 50%; under setting [3], less than 50%; under setting [4], less than 50%; under setting [5], less than 50%.
Take `Nc1nc(NC2Cc3ccccc3N(S(=O)(=O)c3cccc(NC(=O)Nc4cccc(F)c4)c3)C2)c2cn[nH]c2n1` (stereo not drawn) [Compound 219, 1-[3-({3-[(6-amino-1H-pyrazolo[3,4-d]pyrimidin-4-yl)amino]-3,4-dihydroquinolin-1(2H)-yl}sulfonyl)phenyl]-3-(3-fluorophenyl)urea]: the inhibition at 10 µM runs as follows: under setting [1], greater than 79%; under setting [2], greater than 79%; under setting [3], greater than 79%; under setting [4], greater than 79%; under setting [5], greater than 79%.
Turning to `COc1ccc(OC)c(S(=O)(=O)N2CCC(Nc3nc(N)nc4[nH]ncc34)Cc3ccccc32)c1` (stereo not drawn) [Compound 176, N4-{1-[(2,5-dimethoxyphenyl)sulfonyl]-2,3,4,5-tetrahydro-1H-1-benzazepin-4-yl}-1H-pyrazolo[3,4-d]pyrimidine-4,6-diamine], the inhibition at 10 µM was less than 50% under setting [1]; less than 50% under setting [2]; less than 50% under setting [3]; less than 50% under setting [4]; less than 50% under setting [5].
For the compound `Nc1nc(NC2Cc3ccccc3N(S(=O)(=O)c3ccc(C(F)(F)F)cc3Cl)C2)c2cn[nH]c2n1` (stereo not drawn) [Compound 74, N4-(1-(2-chloro-4-(trifluoromethyl)phenylsulfonyl)-1,2,3,4-tetrahydroquinolin-3-yl)-1H-pyrazolo[3,4-d]pyrimidine-4,6-diamine], the inhibition at 10 µM was less than 50% under setting [1]; less than 50% under setting [2]; less than 50% under setting [3]; less than 50% under setting [4]; less than 50% under setting [5].
`COc1cccc(CN2CC(Nc3nc(N)nc4[nH]ncc34)Cc3ccccc32)c1F` (stereo not drawn) [Compound 137, N4-[1-(2-fluoro-3-methoxybenzyl)-1,2,3,4-tetrahydroquinolin-3-yl]-1H-pyrazolo[3,4-d]pyrimidine-4,6-diamine]: the inhibition at 10 µM is, setting by setting: under setting [1], greater than 79%; under setting [2], greater than 79%; under setting [3], greater than 79%; under setting [4], greater than 79%; under setting [5], greater than 79%.
As for `Nc1nc(NC2Cc3ccccc3N(Cc3ccc(OCc4ccccc4)cc3)C2)c2cn[nH]c2n1` (stereo not drawn) [Compound 155, N4-{1-[4-(benzyloxy)benzyl]-1,2,3,4-tetrahydroquinolin-3-yl}-1H-pyrazolo[3,4-d]pyrimidine-4,6-diamine], the inhibition at 10 µM by setting is: under setting [1], greater than 79%; under setting [2], greater than 79%; under setting [3], greater than 79%; under setting [4], greater than 79%; under setting [5], greater than 79%.
With `Nc1nc(NC2Cc3ccccc3N(C(=O)NCCc3cccc(Cl)c3)C2)c2cn[nH]c2n1` (stereo not drawn) [Compound 106, 3-(6-amino-1H-pyrazolo[3,4-d]pyrimidin-4-ylamino)-N-(3-chlorophenethyl)-3,4-dihydroquinoline-1(2H)-carboxamide], the inhibition at 10 µM is less than 50% under setting [1]; less than 50% under setting [2]; less than 50% under setting [3]; less than 50% under setting [4]; less than 50% under setting [5].
Take `Nc1nc(NC2CCN(S(=O)(=O)c3ccc(Cl)c(C(F)(F)F)c3)c3ccccc3C2)c2cn[nH]c2n1` (stereo not drawn) [Compound 170, N4-(1-{[4-chloro-3-(trifluoromethyl)phenyl]sulfonyl}-2,3,4,5-tetrahydro-1H-1-benzazepin-4-yl)-1H-pyrazolo[3,4-d]pyrimidine-4,6-diamine]: the inhibition at 10 µM under setting [1] was less than 50%; the inhibition at 10 µM under setting [2] is greater than 79%; the inhibition at 10 µM under setting [3] was greater than 79%; the inhibition at 10 µM under setting [4] was less than 50%; the inhibition at 10 µM under setting [5] was 50 to 79%.
Turning to `Nc1nc(NC2CCN(S(=O)(=O)c3ccc(F)c(Cl)c3)c3ccccc3C2)c2cn[nH]c2n1` (stereo not drawn) [Compound 181, N4-{1-[(3-chloro-4-fluorophenyl)sulfonyl]-2,3,4,5-tetrahydro-1H-1-benzazepin-4-yl}-1H-pyrazolo[3,4-d]pyrimidine-4,6-diamine], the inhibition at 10 µM is less than 50% under setting [1]; less than 50% under setting [2]; less than 50% under setting [3]; less than 50% under setting [4]; 50 to 79% under setting [5].
`Nc1nc(NC2Cc3ccccc3N(S(=O)(=O)c3ccc(NC(=O)Nc4ccccc4F)cc3)C2)c2cn[nH]c2n1` (stereo not drawn) [Compound 191, 1-[4-({3-[(6-amino-1H-pyrazolo[3,4-d]pyrimidin-4-yl)amino]-3,4-dihydroquinolin-1(2H)-yl}sulfonyl)phenyl]-3-(2-fluorophenyl)urea]: the inhibition at 10 µM under setting [1] was less than 50%; the inhibition at 10 µM under setting [2] is less than 50%; the inhibition at 10 µM under setting [3] is less than 50%; the inhibition at 10 µM under setting [4] was less than 50%; the inhibition at 10 µM under setting [5] is less than 50%.
As to `Nc1nc(NC2Cc3ccccc3N(S(=O)(=O)c3ccc(NC(=O)Nc4ccc(F)c(F)c4)cc3)C2)c2cn[nH]c2n1` (stereo not drawn) [Compound 194, 1-[4-({3-[(6-amino-1H-pyrazolo[3,4-d]pyrimidin-4-yl)amino]-3,4-dihydroquinolin-1(2H)-yl}sulfonyl)phenyl]-3-(3,4-difluorophenyl)urea], the inhibition at 10 µM under setting [1] is greater than 79%; the inhibition at 10 µM under setting [2] was greater than 79%; the inhibition at 10 µM under setting [3] is greater than 79%; the inhibition at 10 µM under setting [4] was greater than 79%; the inhibition at 10 µM under setting [5] is greater than 79%.
Turning to `Nc1nc(NC2Cc3ccccc3N(S(=O)(=O)c3ccsc3)C2)c2cn[nH]c2n1` (stereo not drawn) [Compound 67, N4-(1-(thiophen-3-ylsulfonyl)-1,2,3,4-tetrahydroquinolin-3-yl)-1H-pyrazolo[3,4-d]pyrimidine-4,6-diamine], the inhibition at 10 µM by setting is: under setting [1], less than 50%; under setting [2], less than 50%; under setting [3], less than 50%; under setting [4], less than 50%; under setting [5], less than 50%.
Consider `Nc1nc(NC2Cc3ccccc3N(S(=O)(=O)c3cccc(NC(=O)Nc4cc(C(F)(F)F)ccc4F)c3)C2)c2cn[nH]c2n1` (stereo not drawn) [Compound 220, 1-[3-({3-[(6-amino-1H-pyrazolo[3,4-d]pyrimidin-4-yl)amino]-3,4-dihydroquinolin-1(2H)-yl}sulfonyl)phenyl]-3-[2-fluoro-5-(trifluoromethyl)phenyl]urea], for which the inhibition at 10 µM under setting [1] is greater than 79%; the inhibition at 10 µM under setting [2] was greater than 79%; the inhibition at 10 µM under setting [3] was greater than 79%; the inhibition at 10 µM under setting [4] is greater than 79%; the inhibition at 10 µM under setting [5] is greater than 79%.
For `Nc1nc(NC2Cc3ccccc3N(C(=O)C3CCC3)C2)c2cn[nH]c2n1` (stereo not drawn) [Compound 103, (3-(6-amino-1H-pyrazolo[3,4-d]pyrimidin-4-ylamino)-3,4-dihydroquinolin-1(2H)-yl)(cyclobutyl)methanone], the inhibition at 10 µM is greater than 79% under setting [1]; greater than 79% under setting [2]; greater than 79% under setting [3]; greater than 79% under setting [4]; greater than 79% under setting [5].
For `Cc1ccc(C)c(S(=O)(=O)N2CCC(Nc3nc(N)nc4[nH]ncc34)Cc3ccccc32)c1` (stereo not drawn) [Compound 184, N4-{1-[(2,5-dimethylphenyl)sulfonyl]-2,3,4,5-tetrahydro-1H-1-benzazepin-4-yl}-1H-pyrazolo[3,4-d]pyrimidine-4,6-diamine], the inhibition at 10 µM reads like this: under setting [1], less than 50%; under setting [2], less than 50%; under setting [3], less than 50%; under setting [4], less than 50%; under setting [5], less than 50%.
